Results: US9931351B2, “Method for improving leptin resistance” (Kyoto University, priority 2013, dated 2018)

Columns and labels:
Format in all cases: in vivo
[1] = test system: wild type rats having diet-induced obesity; experiment: Test Example 8: effects to improve metabolism in rats having diet-induced obesity caused by a high fat diet; settings: wild type rats obese after four-week high fat diet, continued high fat diet, 20 mg/kg/day intraperitoneal once a day, further four weeks; for weight of the adipose tissues: epididymal
Protocol: Eight-week old male wild type rats were divided into two groups (n =5 and 15) and kept for four weeks under a standard diet (SD) or a high fat diet (HFD) condition. All the rats fed with the standard diet for the four weeks were assigned to the group “vehicle (V)” and fed with the standard diet for further four weeks, and then the body weight of the rats was measured. The rats fed with the high fat diet for the four weeks were divided into three groups: “vehicle”, “Compound 57”, and “Compound 32”, and fed with the high fat diet for further four weeks, and then the body weight of the rats was measured. The vehicle, Compound 57, and Compound 32 were administered to the rats by intraperitoneal injection once a day. The each dosage of Compounds 57 and 32 was 20 mg/kg/day. Finally the rats were sacrificed, blood, epididymal adipose tissues, and the liver were collected, and the weight of the adipose tissues, the liver weight, and the plasma levels of glucose, insulin, total cholesterol, triglyceride, and nonesterified fatty acid were measured (n =5 for each group).

A-ZIP/F-1 mice = experiment: Test Example 3: effects to improve metabolism in A-ZIP/F-1 mice, a model of generalized lipodystrophy; settings: standard diet, 50 mg/kg/day intraperitoneal once a day, four weeks; for level of nonesterified fatty acid / level of total cholesterol / level of triglyceride: plasma
Source text: A-ZIP/F-1 mice, which are used as a model of generalized lipodystrophy, have substantially no white adipocyte and thus cannot produce leptin (Moitra et al. Genes Dev 12: 3168-3181, 1998). Eight-week old male A-ZIP/F-1 mice, gifted from Dr. Reitman of National Institutes of Health, were divided into two treatment groups: “Vehicle (V)” and “Compound 57”. The mice were kept for four weeks with ad libitum feeding of standard diet (SD), and the body weight and the food intake of the mice were measured. The vehicle and Compound 57 were administered to the mice by intraperitoneal injection once a day. The dosage of Compound 57 was 50 mg/kg/day. After the four weeks the mice were sacrificed and blood, epididymal adipose tissues, and the liver were collected. The weight of the adipose tissues, the liver weight, the liver triglyceride levels, the plasma levels of glucose, insulin, total cholesterol (T-chol), triglyceride (TG) and nonesterified fatty acid (NEFA) were measured (n=5 for each group). The equivalent dosage of Compound 32 was tested in a similar manner (n=5 for each group).

[2] = test system: transgenic mice overexpressing leptin (LepTg) under the high fat diet condition; experiment: Test Example 1: effects to improve metabolism in transgenic mice overexpressing leptin under a high fat diet condition; settings: 60% high fat diet, 50 mg/kg/day intraperitoneal once a day, four weeks; for weight of the adipose tissues: epididymal
Protocol: Eight-week old male wild type mice and transgenic mice overexpressing leptin (LepTg) (Ogawa et al. Diabetes 48: 1822-1829, 1999, prepared in Department of Endocrinology and Metabolism, Kyoto University) were divided into three treatment groups, respectively: “standard diet (SD)+vehicle (V)”, “60% high fat diet (HFD)+vehicle”, and “60% high fat diet+Compound 57”. The mice were kept for four weeks with ad libitum feeding, and the body weight and the food intake of the mice were measured. The vehicle and Compound 57 were administered to the mice by intraperitoneal injection once a day. The dosage of Compound 57 was 50 mg/kg/day. After the four weeks the mice were sacrificed and blood, epididymal adipose tissues, and the liver were collected. The weight of the adipose tissues, the liver weight, the liver triglyceride levels, and the plasma levels of glucose, insulin, total cholesterol (T-chol), triglyceride (TG), and nonesterified fatty acid (NEFA) were measured (n=5 for each group). The equivalent dosage of Compound 32 was tested in a similar manner (n=5 for each group).

[3] = test system: leptin-deficient Lepmkyo/Lepmkyo rats; experiment: Test Example 6: effects to improve metabolism in leptin-deficient Lepmkyo/Lepmkyo rats; settings: standard diet, 20 mg/kg/day intraperitoneal once a day, four weeks; for body weight: versus vehicle
Protocol: Lepmkyo/Lepmkyo rats cannot produce leptin due to a mutation in the leptin gene (Aizawa-Abe et al. Physiol Genomics 45: 786-793, 2013, prepared in Institute of Laboratory Animals, Graduate School of Medicine, Kyoto University). Eight-week old male Lepmkyo/Lepmkyo rats were divided into three treatment groups: “Vehicle (V)”, “Compound 57”, and “Compound 32”. The rats were kept for four weeks with ad libitum feeding of standard diet, and the body weight of the rats were measured. The vehicle, Compound 57, and Compound 32 were administered to the rats by intraperitoneal injection once a day. The each dosage of Compounds 57 and 32 was 20 mg/kg/day. After the four weeks the rats were sacrificed, blood was collected, and the plasma levels of glucose and insulin were measured (n =5 for each group).

[4] = test system: wild type rats under the high fat diet condition; experiment: Test Example 5: effects to improve metabolism in wild type rats under a high fat diet condition; settings: 60% high fat diet, 20 mg/kg/day intraperitoneal once a day, four weeks
Protocol: Eight-week old male wild type rats were divided into four treatment groups: “standard diet (SD)+vehicle (V)”, “60% high fat diet (HFD)+vehicle”, “60% high fat diet+Compound 57”, and “60% high fat diet+Compound 32”. The rats were kept for four weeks with ad libitum feeding, and the body weight of the rats was measured. The vehicle, Compound 32 and Compound 57 were administered to the rats by intraperitoneal injection once a day. The each dosage of Compounds 32 and 57 was 20 mg/kg/day. After the four weeks the rats were sacrificed, blood was collected, and the plasma levels of glucose and insulin were measured (n=5 for each group).

Seipin KO rats = experiment: Test Example 7: effects to improve metabolism in Seipin KO rats, a model of generalized lipodystrophy; settings: standard diet, 20 mg/kg/day intraperitoneal once a day, four weeks
Protocol: Seipin KO rats have a mutation in the Seipin gene, the causative gene of human generalized lipodystrophy, and are used as a model of generalized lipodystrophy. The rats have substantially no white adipocyte and thus cannot produce leptin. The rats were prepared in Department of Endocrinology and Metabolism, Kyoto University. Eight-week old male Seipin KO rats were divided into three treatment groups: “Vehicle (V)”, “Compound 57”, and “Compound 32”. The rats were kept for four weeks with ad libitum feeding of standard diet, and the body weight of the rats were measured. The vehicle, Compound 57, and Compound 32 were administered to the rats by intraperitoneal injection once a day. The each dosage of Compounds 57 and 32 was 20 mg/kg/day. After the four weeks the rats were sacrificed, blood was collected, and the plasma levels of glucose and insulin were measured (n=3 for each group).

| Compound | body weight [1] | plasma level of glucose [1] | plasma level of insulin [1] | plasma level of nonesterified fatty acid [1] | plasma level of total cholesterol [1] | plasma level of triglyceride [1] | weight of the adipose tissues [1] | body weight (A-ZIP/F-1 mice) | food intake (A-ZIP/F-1 mice) | liver triglyceride levels (A-ZIP/F-1 mice) | liver weight (A-ZIP/F-1 mice) | plasma insulin levels (A-ZIP/F-1 mice) | random plasma glucose levels (A-ZIP/F-1 mice) | level of nonesterified fatty acid (A-ZIP/F-1 mice) | level of total cholesterol (A-ZIP/F-1 mice) | level of triglyceride (A-ZIP/F-1 mice) | body weight [2] | food intake [2] | liver triglyceride levels [2] | liver weight [2] | also measured |
| --- | --- | --- | --- | --- | --- | --- | --- | --- | --- | --- | --- | --- | --- | --- | --- | --- | --- | --- | --- | --- | --- |
| Cc1cc(F)ccc1-c1ccc(/N=N/c2cc(S(=O)(=O)[O-])c3ccccc3c2N)cn1.[Na+] [Compound 32, 4-amino-3-[6-(4-fluoro-2-methylphenyl)pyridine-3-ylazo]naphthalene-1-sulfonic acid sodium salt] | decreased | decreased | decreased | decreased | decreased | decreased | decreased | did not | did not change | did not change | did not change | did not change | did not change | did not change | did not change | did not change | did not increase | did not increase | did not increase | did not increase | plasma insulin levels [2]: did not increase; plasma level of nonesterified fatty acid [2]: did not increase; plasma level of total cholesterol [2]: did not increase; plasma level of triglyceride [2]: did not increase; random plasma glucose levels [2]: did not increase; weight of the adipose tissues [2]: did not increase; plasma insulin [3]: did not change; random plasma glucose levels [3]: did not change; body weight [3]: No difference; plasma insulin levels [4]: did not increase; random plasma glucose levels [4]: did not increase; weight gain caused by the high fat diet [4]: not observed; body weight (Seipin KO rats): did not change; plasma insulin (Seipin KO rats): did not change; random plasma glucose levels (Seipin KO rats): did not change |
| Nc1c(/N=N/c2ccc(-c3cccc4c3sc3ccccc34)nc2)cc(S(=O)(=O)[O-])c2ccccc12.[Na+] [Compound 57, 4-amino-3-(6-dibenzothiophene-4-ylpyridine-3-ylazo)naphthalene-1-sulfonic acid sodium salt] | decreased | decreased | decreased | decreased | decreased | decreased | decreased | slightly decreased | did not change | decreased | decreased | did not change | did not change | decreased | decreased | decreased | did not increase | did not increase | did not increase | did not increase | plasma insulin levels [2]: did not increase; plasma level of nonesterified fatty acid [2]: did not increase; plasma level of total cholesterol [2]: did not increase; plasma level of triglyceride [2]: did not increase; random plasma glucose levels [2]: did not increase; weight of the adipose tissues [2]: did not increase; plasma insulin [3]: did not change; random plasma glucose levels [3]: did not change; body weight [3]: No difference; plasma insulin levels [4]: did not increase; random plasma glucose levels [4]: did not increase; weight gain caused by the high fat diet [4]: not observed; body weight (Seipin KO rats): did not change; plasma insulin (Seipin KO rats): did not change; random plasma glucose levels (Seipin KO rats): did not change |
